By IC50 is commonly meant the midpoint of a concentration-inhibition curve. Low values mean greater potency in that assay, high ones weaker potency in that assay.

We go through 20 molecules from ChEMBL document CHEMBL1130727, “Benzothiopyran-4-one based reversible inhibitors of the human cytomegalovirus (HCMV) protease” (Bioorg Med Chem Lett, 1998).

The target of this assay is T1, Capsid scaffolding protein (Human cytomegalovirus (strain AD169) (HHV-5) (Human herpesvirus 5), UniProt P16753).
T1 sequence (P16753 whole entry): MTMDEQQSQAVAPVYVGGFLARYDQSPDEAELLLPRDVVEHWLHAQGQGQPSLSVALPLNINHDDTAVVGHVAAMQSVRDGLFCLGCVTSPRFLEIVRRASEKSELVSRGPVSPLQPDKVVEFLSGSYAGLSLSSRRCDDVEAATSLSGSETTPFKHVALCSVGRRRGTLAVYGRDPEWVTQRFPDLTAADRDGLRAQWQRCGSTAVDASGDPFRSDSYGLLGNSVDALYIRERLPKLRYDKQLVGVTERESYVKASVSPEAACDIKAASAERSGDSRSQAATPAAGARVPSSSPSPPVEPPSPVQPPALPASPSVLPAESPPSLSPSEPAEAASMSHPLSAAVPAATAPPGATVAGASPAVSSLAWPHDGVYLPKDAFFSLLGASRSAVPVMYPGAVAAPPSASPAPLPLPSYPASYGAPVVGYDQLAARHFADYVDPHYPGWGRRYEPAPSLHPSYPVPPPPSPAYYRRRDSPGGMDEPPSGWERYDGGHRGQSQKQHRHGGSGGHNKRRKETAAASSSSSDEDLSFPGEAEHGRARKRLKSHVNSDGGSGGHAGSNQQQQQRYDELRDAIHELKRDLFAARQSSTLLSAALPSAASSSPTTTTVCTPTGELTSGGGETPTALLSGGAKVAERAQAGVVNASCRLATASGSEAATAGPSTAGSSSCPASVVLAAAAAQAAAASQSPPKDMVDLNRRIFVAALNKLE
In words: Inhibitory activity against human cytomegalovirus (HCMV) protease was evaluated. The arrangement: species or system Human betaherpesvirus 5.
Molecule `CCOC(=O)c1ccc2c(c1)C(=O)C=C(c1ccc([N+](=O)[O-])cc1)S2(=O)=O` came in with an IC50 of 180 nM. Regarding `O=C1C=C(c2ccc([N+](=O)[O-])cc2)S(=O)(=O)c2ccccc21`, the IC50 worked out at 60 nM. The molecule `CS(=O)(=O)c1ccc(C2=CC(=O)c3ccccc3S2(=O)=O)cc1` returned a concentration for half-maximal inhibition (IC50) of 100 nM. With `O=C1C=C(c2ccccc2)S(=O)(=O)c2ccccc21`, the midpoint of inhibition, the IC50, lay at 1500 nM. Molecule `O=c1cc(-c2cccnc2)sc2ccccc12` gave a half-maximal inhibitory concentration (IC50) above 34000 nM. `CC(C)c1cccc2c1S(=O)(=O)C(c1ccc([N+](=O)[O-])cc1)=CC2=O` registered an IC50 of 180 nM. Molecule `O=c1cc(-c2ccccc2)[s+]([O-])c2ccccc12` (stereo not given) came in with an IC50 of 10000 nM. In the case of `Cc1cccc2c1C(=O)C=C(c1ccc([N+](=O)[O-])cc1)S2(=O)=O`, inhibition was half-maximal at 100 nM (IC50).

In the case of `CC(C)(C)C1=CC(=O)c2ccccc2S1(=O)=O`, the half-maximal inhibitory concentration (IC50) is above 34000 nM. The same measure for `O=C1C=C(c2ccsc2)S(=O)(=O)c2ccccc21`: above 34000 nM. For `O=C1C=C(c2ccncc2)S(=O)(=O)c2ccccc21`, the concentration for half-maximal inhibition (IC50) stood at 100 nM. `O=C1C=C(c2ccc(-c3ccccc3)cc2)S(=O)(=O)c2ccccc21` showed an IC50 of 60 nM. The figure for `O=C1C=C(c2cccnc2)S(=O)(=O)c2ccccc21` is 200 nM. Take `Cc1cccc2c1S(=O)(=O)C(c1ccc([N+](=O)[O-])cc1)=CC2=O`: the IC50 came to 110 nM. The molecule `O=C1C=C(c2cccs2)S(=O)(=O)c2ccccc21` came in with an IC50 of 460 nM. Consider `O=C1C=C(c2ccc[n+]([O-])c2)S(=O)(=O)c2ccccc21`, for which 600 nM corresponded to half-maximal inhibition (IC50).

As for `O=C1C=C(c2cc[n+]([O-])cc2)S(=O)(=O)c2ccccc21`, the IC50 was found to be 600 nM. With `CS(=O)(=O)c1ccc(-c2cc(=O)c3ccccc3s2)cc1`, the IC50 was above 34000 nM. In turn, `CCCCCCCC1=CC(=O)c2ccccc2S1(=O)=O` registered a half-inhibitory concentration (IC50) of 1400 nM. Regarding `O=c1cc(-c2ccccc2)sc2ccccc12`, the half-maximal inhibitory concentration (IC50) is above 34000 nM.
